Molecular target: α-glucosidase from yeast
Experiment: α-Glucosidase inhibition assay
Format: biochemical, Baker’s yeast
Settings: for IC50: substrate maltose 0.5 mM, pH 6.8, 37 °C, mean ± SD of three independent experiments, read-out: IC50 against α-glucosidase from yeast
Description: α-Glucosidase activity was assayed by the method reported, with minor modifications. […] The reaction mixture contained 150 μL of enzyme solution, 150 μL of inhibitor, and 150 μL of substrate (maltose). The substrate and α-glucosidase (Baker’s yeast) were purchased from Sigma-Aldrich Chemical (St. Louis, MO, USA). Both the inhibitor and the substrate were first dissolved in dimethylsulfoxide (DMSO) and then diluted with Na2HPO4/NaH2PO4 buffer for a final concentration of DMSO of 5%. The enzymatic reaction was started after incubation of the enzyme (0.04 U/mL) for 10 min in the presence of the inhibitor (five different concentrations) by the addition of the substrate (0.5 mM). The mixture was incubated at 37 °C for 60 min, and the reaction was quenched in boiling water for 10 min. The supernatant was taken to determine the content of glucose by means of the glucose oxidase method using a commercial glucose kit (Sichuan Mike Biotechnology Co., Ltd., Chengdu, China). The absorption at 505 nm was measured immediately and taken as the relative rate for the hydrolysis of the substrate. The blank control (the distilled water instead of sample and enzyme solution in the process) and the negative control (distilled water instead of sample solution in the process) were also prepared. Acarbose was used as the positive control. To calculate the inhibition rate (%), the following formula was used: (controlnegative − sample)/(controlnegative − controlblank) × 100%. The entire experiment was carried out in triplicate.

Row | IC50 | times stronger activity than the positive control acarbose (ratio of IC50 values against α-glucosidase from yeast) | SMILES
1 | 10 ± 0.7 µM |  | C[C@]1(O)C[C@@H]2[C@@H](O1)[C@H](O)[C@H](O)CN2Cc1ccc(O)cc1 [Compound 14, (2R, 3aR, 6R, 7R, 7aR)-2,6,7-trihydroxy-2-methyl-4-(4-hydroxylbenzyl)-3a,7a-Dihydrofuro[3,2-b]piperidine]
2 | 4.9 ± 0.2 µM |  | C[C@]1(O)C[C@@H]2[C@@H](O1)[C@H](O)[C@H](O)CN2Cc1ccc(O)c(Cl)c1 [Compound 17, (2R, 3aR, 6R, 7R, 7aR)-2,6,7-trihydroxy-2-methyl-4-(3-chloro-4-hydroxylbenzyl)-3a,7a-Dihydrofuro[3,2-b]piperidine]
3 | > 20 µM |  | C[C@]1(O)C[C@@H]2[C@@H](O1)[C@H](O)[C@H](O)CN2Cc1cccc(O)c1 [Compound 16, (2R, 3aR, 6R, 7R, 7aR)-2,6,7-trihydroxy-2-methyl-4-(3-hydroxylbenzyl)-3a,7a-Dihydrofuro[3,2-b]piperidine]
4 | 10.5 ± 0.8 µM |  | COc1cc(CN2C[C@@H](O)[C@@H](O)[C@@H]3O[C@@](C)(O)C[C@H]32)ccc1O [Compound 22, (2R, 3aR, 6R, 7R, 7aR)-2,6,7-trihydroxy-2-methyl-4-(4-hydroxyl-methoxylbenzyl)-3a,7a-Dihydrofuro[3,2-b]piperidine]
5 | 1.8 ± 0.2 µM |  | C[C@]1(O)C[C@@H]2[C@H](O1)[C@@H](O)[C@@H](O)CN2Cc1ccc(O)cc1Cl [Compound 31, (2R, 3aR, 6S, 7S, 7aS)-2,6,7-trihydroxy-2-methyl-4-(2-chloro-4-hydroxylbenzyl)-3a,7a-Dihydrofuro[3,2-b]piperidine]
6 | 13 ± 0.5 µM |  | C[C@]1(O)C[C@@H]2[C@@H](O1)[C@H](O)[C@H](O)CN2Cc1ccccc1Cl [Compound 13, (2R, 3aR, 6R, 7R, 7aR)-2,6,7-trihydroxy-2-methyl-4-(2-chlorobenzyl)-3a,7a-Dihydrofuro[3,2-b]piperidine]
7 | 3.7 ± 0.1 µM |  | C[C@]1(O)C[C@@H]2[C@H](O1)[C@@H](O)[C@@H](O)CN2Cc1cccc(O)c1 [Compound 27, (2R, 3aR, 6S, 7S, 7aS)-2,6,7-trihydroxy-2-methyl-4-(3-hydroxylbenzyl)-3a,7a-di-hydrofuro[3,2-b]piperidine]
8 | 5.4 ± 0.3 µM |  | C[C@]1(O)C[C@@H]2[C@@H](O1)[C@H](O)[C@H](O)CN2Cc1ccc(O)c(F)c1 [Compound 19, (2R, 3aR, 6R, 7R, 7aR)-2,6,7-trihydroxy-2-methyl-4-(3-fluoro-4-hydroxylbenzyl)-3a,7a-Dihydrofuro[3,2-b]piperidine]
9 | 2.6 ± 0.3 µM |  | C[C@]1(O)C[C@@H]2[C@H](O1)[C@@H](O)[C@@H](O)CN2Cc1ccc(O)c(F)c1 [Compound 30, (2R, 3aR, 6S, 7S, 7aS)-2,6,7-trihydroxy-2-methyl-4-(3-fluoro-4-hydroxylbenzyl)-3a,7a-Dihydrofuro[3,2-b]piperidine]
10 | 9 ± 0.6 µM |  | CCOc1cc(CN2C[C@@H](O)[C@@H](O)[C@@H]3O[C@@](C)(O)C[C@H]32)ccc1O [Compound 23, (2R, 3aR, 6R, 7R, 7aR)-2,6,7-trihydroxy-2-methyl-4-(4-hydroxyl-3-ethyoxylbenzyl)-3a,7a-Dihydrofuro[3,2-b]piperidine]
11 | 0.5 ± 0.1 µM |  | C[C@]1(O)C[C@@H]2[C@H](O1)[C@@H](O)[C@@H](O)CN2Cc1ccc(O)c(Cl)c1 [Compound 28, (2R, 3aR, 6S, 7S, 7aS)-2,6,7-trihydroxy-2-methyl-4-(3-chloro-4-hydroxylbenzyl)-3a,7a-Dihydrofuro[3,2-b]piperidine]
12 | > 20 µM |  | CCOc1cc(CN2C[C@H](O)[C@H](O)[C@H]3O[C@@](C)(O)C[C@H]32)ccc1O [Compound 34, (2R, 3aR, 6S, 7S, 7aS)-2,6,7-trihydroxy-2-methyl-4-(4-hydroxyl-3-ethyoxylbenzyl)-3a,7a-Dihydrofuro[3,2-b]piperidine]
13 | > 20 µM |  | C[C@]1(O)C[C@@H]2[C@H](O1)[C@@H](O)[C@@H](O)CN2Cc1ccccc1O [Compound 26, (2R, 3aR, 6S, 7S, 7aS)-2,6,7-trihydroxy-2-methyl-4-(2-hydroxylbenzyl)-3a,7a-di-hydrofuro[3,2-b]piperidine]
14 | > 20 µM |  | CC(=O)C[C@H]1NC[C@H](O)[C@H](O)[C@H]1O [Compound 12]
15 | > 20 µM |  | COc1cc(CN2C[C@H](O)[C@H](O)[C@H]3O[C@@](C)(O)C[C@H]32)ccc1O [Compound 33, (2R, 3aR, 6S, 7S, 7aS)-2,6,7-trihydroxy-2-methyl-4-(4-hydroxyl-methoxylbenzyl)-3a,7a-Dihydrofuro[3,2-b]piperidine]
16 | > 20 µM |  | CC(=O)C[C@H]1NC[C@@H](O)[C@@H](O)[C@@H]1O [Compound 6]
17 | 1.9 ± 0.2 µM |  | C[C@]1(O)C[C@@H]2[C@@H](O1)[C@H](O)[C@H](O)CN2Cc1cc(Br)c(O)c(Br)c1 [Compound 24, (2R, 3aR, 6R, 7R, 7aR)-2,6,7-trihydroxy-2-methyl-4-(3,5-dibromo-4-hydroxyl-benzyl)-3a,7a-Dihydrofuro[3,2-b]piperidine]
18 | 8.3 ± 0.4 µM |  | C[C@]1(O)C[C@@H]2[C@H](O1)[C@@H](O)[C@@H](O)CN2Cc1ccc(O)cc1 [Compound 25, (2R, 3aR, 6S, 7S, 7aS)-2,6,7-trihydroxy-2-methyl-4-(4-hydroxylbenzyl)-3a,7a-di-hydrofuro[3,2-b]piperidine]
19 | 5.5 ± 0.4 µM |  | C[C@]1(O)C[C@@H]2[C@@H](O1)[C@H](O)[C@H](O)CN2Cc1ccc(O)c(Br)c1 [Compound 18, (2R, 3aR, 6R, 7R, 7aR)-2,6,7-trihydroxy-2-methyl-4-(3-bromo-4-hydroxylbenzyl)-3a,7a-Dihydrofuro[3,2-b]piperidine]
20 | 0.91 ± 0.1 µM |  | C[C@]1(O)C[C@@H]2[C@@H](O1)[C@H](O)[C@H](O)CN2Cc1c(Cl)cc(O)cc1Cl [Compound 21, (2R, 3aR, 6R, 7R, 7aR)-2,6,7-trihydroxy-2-methyl-4-(2,6-dichloro-4-hydroxylbenzyl)-3a,7a-Dihydrofuro[3,2-b]piperidine]
21 | > 20 µM |  | C[C@]1(O)C[C@@H]2[C@@H](O1)[C@H](O)[C@H](O)CN2Cc1ccccc1O [Compound 15, (2R, 3aR, 6R, 7R, 7aR)-2,6,7-trihydroxy-2-methyl-4-(2-hydroxylbenzyl)-3a,7a-Dihydrofuro[3,2-b]piperidine]
22 | 1.2 ± 0.1 µM |  | C[C@]1(O)C[C@@H]2[C@H](O1)[C@@H](O)[C@@H](O)CN2Cc1ccc(O)c(Br)c1 [Compound 29, (2R, 3aR, 6S, 7S, 7aS)-2,6,7-trihydroxy-2-methyl-4-(3-bromo-4-hydroxylbenzyl)-3a,7a-Dihydrofuro[3,2-b]piperidine]
23 | 0.07 ± 0.01 µM | 30 times | C[C@]1(O)C[C@@H]2[C@H](O1)[C@@H](O)[C@@H](O)CN2Cc1c(Cl)cc(O)cc1Cl [Compound 32, (2R, 3aR, 6S, 7S, 7aS)-2,6,7-trihydroxy-2-methyl-4-(2,6-dichloro-4-hydroxylbenzyl)-3a,7a-Dihydrofuro[3,2-b]piperidine]
24 | 4.4 ± 0.3 µM |  | C[C@]1(O)C[C@@H]2[C@@H](O1)[C@H](O)[C@H](O)CN2Cc1ccc(O)cc1Cl [Compound 20, (2R, 3aR, 6R, 7R, 7aR)-2,6,7-trihydroxy-2-methyl-4-(2-chloro-4-hydroxylbenzyl)-3a,7a-Dihydrofuro[3,2-b]piperidine]

Row | SMILES | IC50 | times stronger activity than the positive control acarbose (ratio of IC50 values against α-glucosidase from yeast)
25 | C[C@H]1O[C@H](O[C@H]2[C@H](O)[C@@H](O)[C@@H](O[C@H]3[C@H](O)[C@@H](O)C(O)O[C@@H]3CO)O[C@@H]2CO)[C@H](O)[C@@H](O)[C@@H]1N[C@H]1C=C(CO)[C@@H](O)[C@H](O)[C@H]1O (some centres unmarked) [Acarbose, reference compound] | 2 ± 0.2 µM | 
